Test results reported in patent publication US8551981B2, “Furo[3,2-d]pyrimidine compounds” (AbbVie Inc., priority 2010, dated 2013).

What follows are molecules tested on Fcγ receptor signaling (assay: Reverse Passive Arthus model). Conditions: Rattus norvegicus, single dose 10 mg/kg.
Type: in vivo
Description: Acute in vivo measurement of Fcγ receptor signaling inhibition of the compounds is measured using the:
Reverse Passive Arthus Model
On day 0 OVA was made up at a concentration of 17 mg/mL, in PBS by rocking gently until a solution was formed. 2% Evans Blue solution (Sigma Aldrich, cat# E2129) was then added to double the volume for a final concentration of 8.5 mg/mL of OVA and 1% Evans Blue dye. Anti-OVA antibody (Abazyme), stock concentration 10 mg/mL, was thawed and a 4 mg/mL solution was made with PBS. Compounds were made up in 0.5% HPMC with 0.02% Tween 80, and vortexed for about 15 seconds followed by homogenization for a minimum of about 2 min at 28,000 RPM until there was a fine particulate suspension with no clumps of compound. Rats were weighed and dosed with compound at a pre-determined time based on compound Tmax determined in pharmacokinetic studies. Animals were then placed under general anesthesia with a 5% isoflourane and oxygen mixture and shaved. Using a 0.5 cc insulin syringe two sites were injected i.d., 1 site with 100 μL of 4.0 mg/mL of anti-OVA antibody, and 1 site with 100 μL of sterile PBS. Each injection site was circled with a permanent marker to mark the site. Immediately following i.d. injections, animals were injected with 200 μL of the OVA (10 mg/kg)/1% Evans Blue mixture, i.v., using a 0.5 cc insulin syringe. About 4 h post injection animals were euthanized, bled via cardiac puncture and blood was put into plasma separation tubes. Blood samples were stored on ice until centrifugation (within about 2 h of collection). Each injection site was removed with a disposable biopsy punch (Acuderm Acu-Punch Disposable 12 mm), cut into four pieces and placed in a pre-labeled 2 mL eppendorf tube. One mL of DMF (99%) was added to each biopsy tube and they were placed in a heat block at about 50° C. for about 24 h. After incubation, 100 μL of each sample was transferred to a 96 well flat bottom plate and read at 620 nm on a plate reader using the Softmax software. Background was removed by subtracting the OD from the PBS injected site from the OD of the anti-OVA injected site for each individual animal. Plasma samples were spun down in a microcentrifuge (Eppendorf 5415R) for about 5 min at 16.1 rcf. 200 μL of plasma was placed in a 1.7 mL eppendorf tube for drug level measurements and tubes were stored at about −80° C. until evaluation.

Compound	inhibition in vivo at 10 mg/kg [%]
CC1(C)C(=O)Nc2cc(Nc3nc(N4CCC(O)(CN)CC4)c4occc4n3)ccc21 [Example #AM.1.3]	15
FC(F)(F)CNc1nc(Nc2ccc3cn[nH]c3c2)nc2ccoc12 [Example #13, N^2-(1H-Indazol-6-yl)-N^4-(2,2,2-trifluoroethyl)furo[3,2-d]pyrimidine-2,4-diamine]	70
Cn1ncc2cc(Nc3nc(NC4CC4)c4occc4n3)ccc21 [B.5.8]	49
CC1(C)Cc2ccc(Nc3nc(NC4CC4)c4occc4n3)cc2NC1=O [B.5.41]	42
O=C(NC1CC1)c1n[nH]c2cc(Nc3nc(NC4CC4)c4occc4n3)ccc12 [E.2.1, N-Cyclopropyl-6-(4-(cyclopropylamino)furo[3,2-d]pyrimidin-2-ylamino)-1H-indazole-3-carboxamide]	-1
Clc1cc(Nc2nc(N3CCC4(CCCNC4)CC3)c3occc3n2)ccc1N1CCOCC1 [C.1.41]	40
